What was measured:
[1] = molecular target: T1, CISD1 Gene Product (mitoNEET) (Homo sapiens, UniProt Q9NZ45); test: Stability of Fe-S cluster binding of purified NEET protein (absorbance 458 nm); assay type: biochemical
T1 sequence (Q9NZ45 33-108 limits assumed): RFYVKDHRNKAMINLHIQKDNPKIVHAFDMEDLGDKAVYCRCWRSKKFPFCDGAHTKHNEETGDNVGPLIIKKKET
Description: (§1) The modulator effect on the NEET proteins encoded by human CISD1, CISD2, and CISD3 genes by the compounds of the invention has been tested and is reported below. Particularly, the biochemical function of the NEET proteins is measured by the stability of Fe—S cluster binding of the purified NEET proteins.
(§2) The Fe—S cluster binding capacity of NEET proteins is known to be coordinated by four amino-acids in a stretch of 16 (three Cysteine and one Histidine). As the lability of the Fe—S cluster of NEET proteins is sensitive to the environment, cluster stability measurements are one of the measures of interactions of NEET proteins with small molecules and compounds. NEET protein/2Fe-2S cluster stability can be assessed by monitoring the decay in absorbance of its characteristic 458-nm peak (characteristic of the oxidized 2Fe-2S cluster) over time. Each NEET protein (mitoNEET, NAF-1 and Miner 2) was tested for its Fe—S binding in the absence or presence of a compound according to the invention (see table 3 below). The rate of cluster release (time in minutes to achieve 50% loss of bound Fe—S cluster) was compared for each NEET protein in the presence of one of the compounds of the invention (in a 1:3 protein:compound molar ratio) relative to each protein alone.
(§3) At pH 6, all the three NEET proteins (mitoNEET, NAF-1 and Miner 2) have a characteristic rate of loss of the bound Fe—S cluster that can be measured by the decrease of absorbance at wavelength 458 nm over time, using a spectrophotometer. Thus, Bis-Tris buffer (100 mM Bis-Tris pH6, 100 mM Nacl) was used at pH 6 to dilute either DMSO (Blank sample: Bis-Tris Buffer pH 6, 66 μM DMSO), DMSO and one of the three NEET proteins (Control sample: Bis-Tris Buffer pH 6, 66 μM DMSO, 20 μM purified NEET protein) or DMSO, one of the three NEET proteins and a compound of the invention (Test sample: Bis-Tris Buffer pH 6, 66 μM DMSO, 20 μM purified NEET protein, 60 μM compound of the invention).
(§4) A reaction mix containing DMSO diluted in the Bis-Tris Buffer with or without a compound of the invention was prepared. The purified NEET protein was the last component added to the reaction mix which was then aliquoted into 4 replicates in 96 wells plates. The absorbance at wavelength 458 nm was taken at 5 minutes intervals at 37° C. with a spectrofluorimeter. The assay run time for CISD2 gene product (NAF-1) was 500 minutes and 180 minutes for both the CISD 1 gene product (mitoNEET) and the CISD3 gene product (Miner 2).
(§5) In addition to time monitoring, residual bound Fe—S cluster to NEET protein was measured at the final point of the spectrometry assay for each Test sample and compared to the Control sample data (in parenthesis table 3). This residual binding is measured by the differential percentage between the absorbance 458 nm at time zero and the absorbance 458 nm at the end of the experiment (i.e. respectively 500 or 180 minutes as described hereabove), showing the percentage of NEET protein still able to bind Fe—S cluster.
(§6) Analysis of the absorbance enables the time for which 50% loss of bound Fe—S cluster is reached (i.e. a 50% absorbance decrease at 458 nm) for each Test sample and each Control sample (in parenthesis table 3) to be determined. The data are then compared to determine whether the compound of the invention stabilizes or destabilizes the NEET protein/Fe—S cluster binding.
(§7) Stabilisers of Fe—S cluster binding by the NEET proteins slow the release of bound Fe—S (i.e. increase the time needed to reach 50% Fe—S cluster bound loss by more than 25% for the Test sample compared to the Control sample). As illustrated by table 3, at the concentrations tested, stabilisers of CISD1 Gene Product (mitoNEET) are the compounds #9, #18, #26, #2, #1, and #42. Stabilisers of CISD2 Gene Product (NAF-1) are the compounds #2, #1, and #40. Stabilisers of CISD3 Gene Product (Miner2) are the compounds #9, #18, #26, #2, #1, and #42.

[2] = molecular target: T2, CISD2 Gene Product (NAF-1) (Homo sapiens, UniProt Q8N5K1); test: as above; assay type: biochemical
T2 sequence (Q8N5K1 57-135 limits assumed): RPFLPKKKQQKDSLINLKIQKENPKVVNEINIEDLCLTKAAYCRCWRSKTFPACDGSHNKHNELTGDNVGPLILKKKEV
Description: as §1, §2, §3, §4, §5, §6, §7

[3] = molecular target: T3, CISD3 Gene Product (Miner2) (Homo sapiens, UniProt P0C7P0); test: as above; assay type: biochemical
T3 sequence (P0C7P0 15-127): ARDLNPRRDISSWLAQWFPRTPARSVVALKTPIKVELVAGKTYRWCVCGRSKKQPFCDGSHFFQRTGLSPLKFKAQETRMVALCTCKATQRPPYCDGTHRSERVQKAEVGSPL
Description: as §1, §2, §3, §4, §5, §6, §7

[4] = system: H1N1 (influenza A/New Caledonia/20/99); test: Antiviral effect on A549 cells infected with H1N1; assay type: cell-based, H1N1 A/New Caledonia/20/99 virus; settings: Influenza A virus, MOI 0.1, 48 h post-infection, MUNANA neuraminidase readout
Summary of the method: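 A549 cells dosed with test compounds over a concentration range and infected at once with clinical isolate H1N1 A/New Caledonia/20/99 (MOI 0.1) in DMEM with […] TPCK trypsin, 37 °C. At 48 h, supernatant neuraminidase activity measured with MUNANA substrate (1 h, 37 °C); 4-MU fluorescence at ex 365/em 450 nm.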

## O=C(Nc1scc(-c2ccc(Cl)c(F)c2)c1C(=O)O)c1ccccc1 [Compound #2, 2-Benzamido-4-(4-chloro-3-fluoro-phenyl)thiophene-3-carboxylic acid]
[1]; at 180 minutes, 60 μM compound, vehicle control 16%
  Residual cluster bound at end of experiment (Percentage Absorbance 458 nm at time zero): 36% (16%)
[1]; at the concentrations tested
  Stabiliser of Fe—S cluster binding (time to 50% loss increased by more than 25% vs control): stabilisers
[1]; pH 6, 37° C., 20 μM protein, 60 μM compound, run time 180 minutes, vehicle control 80
  Time (in minutes) to achieve 50% loss of bound cluster (Absorbance 458 nm): during 180 minutes
[2]; at 500 minutes, 60 μM compound, vehicle control 3%
  Residual cluster bound at end of experiment (Percentage Absorbance 458 nm at time zero): 18% (3%)
[2]; at the concentrations tested
  Stabiliser of Fe—S cluster binding (time to 50% loss increased by more than 25% vs control): Stabilisers
[2]; pH 6, 37° C., 20 μM protein, 60 μM compound, run time 500 minutes, vehicle control 310
  Time (in minutes) to achieve 50% loss of bound cluster (Absorbance 458 nm): during 500 minutes
[3]; CISD3 gene product, at 180 minutes, 60 μM compound, vehicle control (DMSO) 11%
  Residual cluster bound at end of experiment (Percentage Absorbance 458 nm at time zero): 52% (11%)
[3]; Miner2, at the concentrations tested
  Stabiliser of Fe—S cluster binding (time to 50% loss increased by more than 25% vs control): Stabilisers
[3]; Miner2, pH 6, 37° C., 20 μM protein, 60 μM compound, run time 180 minutes, vehicle control 60
  Time (in minutes) to achieve 50% loss of bound cluster (Absorbance 458 nm): during 180 minutes
[4]
  IC50: 210 nM
